{"source": "patent US12275731B2", "about": "“Azaindole inhibitors of wild-type and mutant forms of LRRK2” (DANA-FARBER CANCER INSTITUTE, INC., priority 2018, dated 2025)", "test_in_all_cases": "KinomeScan profiling", "assay_type_in_all_cases": "binding", "key": {"ALK(C1156Y)": {"target": "T1, ALK(C1156Y) (Homo sapiens, UniProt Q9UM73, C1156Y)", "T1 construct": "purchased KinomeScan®", "T1 sequence (Q9UM73 19-1620 C1156Y)": "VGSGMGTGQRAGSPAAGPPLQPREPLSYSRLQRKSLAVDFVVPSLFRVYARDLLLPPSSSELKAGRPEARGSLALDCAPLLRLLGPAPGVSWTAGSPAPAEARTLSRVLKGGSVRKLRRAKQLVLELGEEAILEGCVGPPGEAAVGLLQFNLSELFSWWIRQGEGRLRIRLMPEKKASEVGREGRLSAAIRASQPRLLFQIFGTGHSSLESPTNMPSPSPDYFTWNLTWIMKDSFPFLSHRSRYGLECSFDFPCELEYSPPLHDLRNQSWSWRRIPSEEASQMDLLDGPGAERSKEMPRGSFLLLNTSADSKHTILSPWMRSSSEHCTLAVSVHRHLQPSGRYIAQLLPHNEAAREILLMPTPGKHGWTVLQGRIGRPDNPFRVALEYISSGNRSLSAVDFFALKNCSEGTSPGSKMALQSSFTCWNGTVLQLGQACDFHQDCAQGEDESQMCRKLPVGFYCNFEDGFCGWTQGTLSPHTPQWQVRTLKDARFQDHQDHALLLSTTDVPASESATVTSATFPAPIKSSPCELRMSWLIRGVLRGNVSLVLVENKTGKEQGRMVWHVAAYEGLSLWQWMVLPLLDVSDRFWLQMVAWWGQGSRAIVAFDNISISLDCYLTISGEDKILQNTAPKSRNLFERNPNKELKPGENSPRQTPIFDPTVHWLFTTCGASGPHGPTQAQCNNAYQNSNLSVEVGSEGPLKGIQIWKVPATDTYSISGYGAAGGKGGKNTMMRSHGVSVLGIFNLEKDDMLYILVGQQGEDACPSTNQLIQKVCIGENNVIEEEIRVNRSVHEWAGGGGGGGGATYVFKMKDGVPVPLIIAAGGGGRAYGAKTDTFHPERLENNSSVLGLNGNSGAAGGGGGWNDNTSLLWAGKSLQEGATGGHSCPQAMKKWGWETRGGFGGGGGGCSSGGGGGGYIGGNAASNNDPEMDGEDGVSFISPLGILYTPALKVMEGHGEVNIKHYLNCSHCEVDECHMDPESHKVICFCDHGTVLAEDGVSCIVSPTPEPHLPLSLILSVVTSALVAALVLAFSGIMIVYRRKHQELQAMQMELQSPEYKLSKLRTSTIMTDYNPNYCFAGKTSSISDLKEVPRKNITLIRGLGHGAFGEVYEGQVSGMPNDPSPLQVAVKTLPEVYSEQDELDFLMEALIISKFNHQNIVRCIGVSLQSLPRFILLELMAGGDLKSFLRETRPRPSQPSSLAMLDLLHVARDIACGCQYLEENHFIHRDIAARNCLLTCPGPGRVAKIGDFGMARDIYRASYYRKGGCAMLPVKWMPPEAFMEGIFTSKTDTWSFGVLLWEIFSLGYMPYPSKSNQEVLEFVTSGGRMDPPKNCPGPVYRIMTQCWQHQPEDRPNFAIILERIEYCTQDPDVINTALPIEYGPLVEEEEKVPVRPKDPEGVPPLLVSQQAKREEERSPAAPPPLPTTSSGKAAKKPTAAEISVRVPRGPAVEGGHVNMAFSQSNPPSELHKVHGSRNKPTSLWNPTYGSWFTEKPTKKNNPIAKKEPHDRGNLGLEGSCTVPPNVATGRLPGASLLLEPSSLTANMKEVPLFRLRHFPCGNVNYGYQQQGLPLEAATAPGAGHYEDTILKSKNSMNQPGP", "settings": "read-out: % control", "procedure,_shortened": "(§1)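 Single-point competition binding screen: 1 μM, DMSO, 468 kinases. Results reported as % control from RLU, normalised to DMSO and positive-control wells. Activity threshold: <35% control.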"}, "MARK4": {"target": "T2, MARK4 (Homo sapiens, UniProt Q96L34)", "T2 sequence (Q96L34 1-752)": "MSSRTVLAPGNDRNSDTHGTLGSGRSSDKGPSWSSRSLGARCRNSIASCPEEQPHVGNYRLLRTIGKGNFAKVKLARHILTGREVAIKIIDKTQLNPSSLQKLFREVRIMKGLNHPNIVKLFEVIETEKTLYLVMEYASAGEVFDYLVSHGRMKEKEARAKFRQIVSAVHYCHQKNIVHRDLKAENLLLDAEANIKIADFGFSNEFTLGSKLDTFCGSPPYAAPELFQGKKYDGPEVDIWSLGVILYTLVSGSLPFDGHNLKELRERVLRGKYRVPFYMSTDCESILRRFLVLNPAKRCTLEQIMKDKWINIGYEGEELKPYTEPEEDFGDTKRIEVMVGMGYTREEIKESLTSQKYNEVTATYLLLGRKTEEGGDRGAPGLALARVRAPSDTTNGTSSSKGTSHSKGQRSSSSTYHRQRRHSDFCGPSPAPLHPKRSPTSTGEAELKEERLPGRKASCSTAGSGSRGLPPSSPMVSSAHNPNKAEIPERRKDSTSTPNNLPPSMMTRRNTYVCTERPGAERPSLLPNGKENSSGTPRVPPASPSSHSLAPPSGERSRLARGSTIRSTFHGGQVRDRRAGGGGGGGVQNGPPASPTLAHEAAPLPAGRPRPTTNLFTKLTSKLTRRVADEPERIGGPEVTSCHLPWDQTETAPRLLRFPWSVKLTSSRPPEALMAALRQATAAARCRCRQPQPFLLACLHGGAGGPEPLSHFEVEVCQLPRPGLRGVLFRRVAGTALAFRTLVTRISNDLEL", "settings": "MARK4, 1 μM; read-out: % control", "procedure,_shortened": "as §1"}, "MELK": {"target": "MELK (Homo sapiens, UniProt Q14680)", "sequence (Q14680 whole entry)": "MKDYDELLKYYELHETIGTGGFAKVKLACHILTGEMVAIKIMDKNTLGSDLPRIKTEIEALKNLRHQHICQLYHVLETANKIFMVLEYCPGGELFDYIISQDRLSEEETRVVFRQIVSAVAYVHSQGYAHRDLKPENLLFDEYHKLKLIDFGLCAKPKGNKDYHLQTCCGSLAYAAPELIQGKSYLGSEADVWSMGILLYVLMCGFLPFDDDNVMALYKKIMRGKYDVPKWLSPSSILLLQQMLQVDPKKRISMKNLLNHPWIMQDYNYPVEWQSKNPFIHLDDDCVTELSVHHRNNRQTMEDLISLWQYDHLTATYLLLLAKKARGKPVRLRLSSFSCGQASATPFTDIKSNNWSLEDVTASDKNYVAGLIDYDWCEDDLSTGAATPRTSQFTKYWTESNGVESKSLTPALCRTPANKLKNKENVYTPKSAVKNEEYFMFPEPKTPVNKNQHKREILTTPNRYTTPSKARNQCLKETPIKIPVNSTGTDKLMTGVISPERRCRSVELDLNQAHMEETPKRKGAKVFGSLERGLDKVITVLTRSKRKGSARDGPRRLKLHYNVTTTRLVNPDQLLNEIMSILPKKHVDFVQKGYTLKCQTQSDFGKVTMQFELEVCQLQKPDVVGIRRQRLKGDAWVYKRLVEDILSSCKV", "settings": "read-out: % control", "procedure,_shortened": "as §1"}, "NEK4": {"target": "NEK4 (Homo sapiens, UniProt P51957)", "sequence (P51957 whole entry)": "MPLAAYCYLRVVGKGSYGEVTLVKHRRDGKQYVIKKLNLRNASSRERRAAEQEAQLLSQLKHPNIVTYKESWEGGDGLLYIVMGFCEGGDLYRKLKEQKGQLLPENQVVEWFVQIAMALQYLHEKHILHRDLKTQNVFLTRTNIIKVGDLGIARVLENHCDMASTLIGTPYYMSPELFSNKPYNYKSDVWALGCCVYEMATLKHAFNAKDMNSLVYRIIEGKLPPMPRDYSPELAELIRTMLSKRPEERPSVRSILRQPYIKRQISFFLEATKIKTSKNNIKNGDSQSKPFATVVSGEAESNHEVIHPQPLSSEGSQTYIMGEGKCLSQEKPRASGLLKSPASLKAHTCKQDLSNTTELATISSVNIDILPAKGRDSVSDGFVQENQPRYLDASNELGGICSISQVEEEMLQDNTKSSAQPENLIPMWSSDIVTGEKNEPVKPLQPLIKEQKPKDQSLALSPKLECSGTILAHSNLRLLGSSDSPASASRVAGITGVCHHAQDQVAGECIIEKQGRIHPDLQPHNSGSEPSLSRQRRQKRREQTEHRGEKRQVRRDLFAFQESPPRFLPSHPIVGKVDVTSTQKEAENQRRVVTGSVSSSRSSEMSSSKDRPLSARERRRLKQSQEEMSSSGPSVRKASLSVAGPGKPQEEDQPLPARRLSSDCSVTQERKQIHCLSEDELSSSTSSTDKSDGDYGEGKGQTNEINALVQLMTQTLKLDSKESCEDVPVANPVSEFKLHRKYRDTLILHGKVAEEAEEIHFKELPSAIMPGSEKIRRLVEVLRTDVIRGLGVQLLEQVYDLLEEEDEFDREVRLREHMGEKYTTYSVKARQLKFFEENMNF", "settings": "NEK4, 1 μM; read-out: % control", "procedure,_shortened": "as §1"}, "PIK4CB": {"target": "T3, PIK4CB (Homo sapiens, UniProt Q9UBF8)", "T3 construct": "purchased KinomeScan® (panel service)", "settings": "read-out: % control", "procedure,_shortened": "as §1"}, "PIKFYVE": {"target": "T4, PIKFYVE (Homo sapiens, UniProt Q9Y2I7)", "T4 construct": "purchased KinomeScan® (panel service)", "settings": "read-out: % control", "procedure,_shortened": "as §1"}, "PKAC-alpha": {"target": "T5, PKAC-alpha (Homo sapiens, UniProt P17612)", "T5 construct": "purchased KinomeScan® (panel service)", "settings": "read-out: % control", "procedure,_shortened": "as §1"}, "RIOK2": {"target": "RIOK2 (Homo sapiens, UniProt Q9BVS4)", "sequence (Q9BVS4 whole entry)": "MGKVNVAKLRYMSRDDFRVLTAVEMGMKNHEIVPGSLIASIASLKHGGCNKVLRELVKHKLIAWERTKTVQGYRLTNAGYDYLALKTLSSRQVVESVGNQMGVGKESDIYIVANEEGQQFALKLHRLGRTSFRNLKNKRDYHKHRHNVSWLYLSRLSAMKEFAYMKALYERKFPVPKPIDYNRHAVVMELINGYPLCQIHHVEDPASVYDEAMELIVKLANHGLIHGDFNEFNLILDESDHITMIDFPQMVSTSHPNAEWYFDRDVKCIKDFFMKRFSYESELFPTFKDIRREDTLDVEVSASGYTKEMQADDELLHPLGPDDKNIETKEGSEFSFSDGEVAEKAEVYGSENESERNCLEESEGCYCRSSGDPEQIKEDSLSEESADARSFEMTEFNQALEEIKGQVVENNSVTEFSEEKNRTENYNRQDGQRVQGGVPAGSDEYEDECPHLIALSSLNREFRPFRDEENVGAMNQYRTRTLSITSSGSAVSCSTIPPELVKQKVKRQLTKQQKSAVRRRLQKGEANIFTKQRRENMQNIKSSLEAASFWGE", "settings": "RIOK2, 1 μM; read-out: % control", "procedure,_shortened": "as §1"}, "RIPK5": {"target": "T6, RIPK5 (Homo sapiens, UniProt Q6XUX3)", "T6 sequence (Q6XUX3 1-929)": "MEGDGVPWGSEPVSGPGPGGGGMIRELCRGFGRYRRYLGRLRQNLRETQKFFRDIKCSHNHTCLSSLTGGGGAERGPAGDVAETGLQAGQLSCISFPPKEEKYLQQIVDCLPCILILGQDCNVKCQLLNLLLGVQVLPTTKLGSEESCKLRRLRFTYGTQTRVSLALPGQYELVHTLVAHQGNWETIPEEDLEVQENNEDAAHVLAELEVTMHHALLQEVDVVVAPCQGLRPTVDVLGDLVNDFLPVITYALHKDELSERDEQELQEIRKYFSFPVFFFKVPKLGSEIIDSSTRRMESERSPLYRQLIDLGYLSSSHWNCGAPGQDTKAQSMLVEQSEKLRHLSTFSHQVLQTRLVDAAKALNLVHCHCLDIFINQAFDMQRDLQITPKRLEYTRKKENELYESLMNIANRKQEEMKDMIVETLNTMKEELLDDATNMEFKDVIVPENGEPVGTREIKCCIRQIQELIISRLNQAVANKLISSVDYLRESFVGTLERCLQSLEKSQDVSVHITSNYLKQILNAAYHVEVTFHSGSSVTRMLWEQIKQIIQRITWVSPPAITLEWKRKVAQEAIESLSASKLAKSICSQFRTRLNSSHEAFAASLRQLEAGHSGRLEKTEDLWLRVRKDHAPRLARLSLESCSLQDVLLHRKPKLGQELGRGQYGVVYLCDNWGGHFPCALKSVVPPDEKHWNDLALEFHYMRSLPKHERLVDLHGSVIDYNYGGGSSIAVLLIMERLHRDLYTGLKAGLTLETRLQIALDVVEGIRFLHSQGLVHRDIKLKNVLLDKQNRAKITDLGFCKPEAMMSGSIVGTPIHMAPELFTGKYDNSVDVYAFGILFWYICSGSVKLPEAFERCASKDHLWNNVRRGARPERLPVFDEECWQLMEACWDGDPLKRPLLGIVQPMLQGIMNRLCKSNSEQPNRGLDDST", "settings": "RIPK5, 1 μM; read-out: % control", "procedure,_shortened": "as §1"}, "STK39": {"target": "T7, STK39 (Homo sapiens, UniProt Q9UEW8)", "T7 construct": "purchased KinomeScan® (panel service)", "settings": "STK39, 1 μM; read-out: % control", "procedure,_shortened": "as §1"}}, "data": [{"smiles": "CNc1c(-c2cnn([C@H]3CCN(C(C)=O)C[C@@H]3F)c2)cnc2[nH]cc(Cl)c12", "note": "[Compound 77, 1-((3S,4S)-4-(4-(3-chloro-4-(methylamino)-1H-pyrrolo[2,3-b]pyridin-5-yl)-1H-pyrazol-1-yl)-3-fluoropiperidin-1-yl)ethan-1-one]", "values": [{"measurement": "remaining binding at 1 µM", "setting": "ALK(C1156Y)", "result": 47, "unit": "%"}, {"measurement": "remaining binding at 1 µM", "setting": "MARK4", "result": 36, "unit": "%"}, {"measurement": "remaining binding at 1 µM", "setting": "MELK", "result": 20, "unit": "%"}, {"measurement": "remaining binding at 1 µM", "setting": "NEK4", "result": 82, "unit": "%"}, {"measurement": "remaining binding at 1 µM", "setting": "PIK4CB", "result": 59, "unit": "%"}, {"measurement": "remaining binding at 1 µM", "setting": "PIKFYVE", "result": 53, "unit": "%"}, {"measurement": "remaining binding at 1 µM", "setting": "PKAC-alpha", "result": 100, "unit": "%"}, {"measurement": "remaining binding at 1 µM", "setting": "RIOK2", "result": 73, "unit": "%"}, {"measurement": "remaining binding at 1 µM", "setting": "RIPK5", "result": 31, "unit": "%"}, {"measurement": "remaining binding at 1 µM", "setting": "STK39", "result": 16, "unit": "%"}]}, {"smiles": "O=C(c1ccc(-c2cnc3[nH]cc(Cl)c3c2NC2CCCC2)cc1)N1CCC(N2CCOCC2)CC1", "note": "[Compound 101, (4-(3-chloro-4-(cyclopentylamino)-1H-pyrrolo[2,3-b]pyridin-5-yl)phenyl)(4-morpholinopiperidin-1-yl)methanone]", "values": [{"measurement": "remaining binding at 1 µM", "setting": "ALK(C1156Y)", "result": 66, "unit": "%"}, {"measurement": "remaining binding at 1 µM", "setting": "MARK4", "result": 82, "unit": "%"}, {"measurement": "remaining binding at 1 µM", "setting": "MELK", "result": 30, "unit": "%"}, {"measurement": "remaining binding at 1 µM", "setting": "NEK4", "result": 100, "unit": "%"}, {"measurement": "remaining binding at 1 µM", "setting": "PIK4CB", "result": 100, "unit": "%"}, {"measurement": "remaining binding at 1 µM", "setting": "PIKFYVE", "result": 98, "unit": "%"}, {"measurement": "remaining binding at 1 µM", "setting": "PKAC-alpha", "result": 100, "unit": "%"}, {"measurement": "remaining binding at 1 µM", "setting": "RIOK2", "result": 28, "unit": "%"}, {"measurement": "remaining binding at 1 µM", "setting": "RIPK5", "result": 50, "unit": "%"}, {"measurement": "remaining binding at 1 µM", "setting": "STK39", "result": 80, "unit": "%"}]}, {"smiles": "CNc1c(-c2ccc(C(=O)N3CCC(N4CCOCC4)CC3)cc2)cnc2[nH]cc(Cl)c12", "note": "[Compound 96, (4-(3-chloro-4-(methylamino)-1H-pyrrolo[2,3-b]pyridin-5-yl)phenyl)(4-morpholinopiperidin-1-yl)methanone]", "values": [{"measurement": "remaining binding at 1 µM", "setting": "ALK(C1156Y)", "result": 37, "unit": "%"}, {"measurement": "remaining binding at 1 µM", "setting": "MARK4", "result": 38, "unit": "%"}, {"measurement": "remaining binding at 1 µM", "setting": "MELK", "result": 16, "unit": "%"}, {"measurement": "remaining binding at 1 µM", "setting": "NEK4", "result": 65, "unit": "%"}, {"measurement": "remaining binding at 1 µM", "setting": "PIK4CB", "result": 58, "unit": "%"}, {"measurement": "remaining binding at 1 µM", "setting": "PIKFYVE", "result": 66, "unit": "%"}, {"measurement": "remaining binding at 1 µM", "setting": "PKAC-alpha", "result": 100, "unit": "%"}, {"measurement": "remaining binding at 1 µM", "setting": "RIOK2", "result": 26, "unit": "%"}, {"measurement": "remaining binding at 1 µM", "setting": "RIPK5", "result": 8.6, "unit": "%"}, {"measurement": "remaining binding at 1 µM", "setting": "STK39", "result": 9.7, "unit": "%"}]}]}
